pEC50: −log10 of the molar value. Read-outs that look alike come from different tables or passages of the source.
Experiments:
[1] = biological target: T1, mouse RORγ (Mus musculus, UniProt P51450); experiment: In vitro assay of inhibitory effect against RORγ transcriptional activity (GAL4-mRORγ LBD luciferase reporter gene assay in CHO cells); type: cell-based; conditions: for mRORγ luciferase activity, %-of-control: vehicle-control 0.2% DMSO alone = 100%
T1 construct: mouse RORγ, from Ile251 to Lys516; expressed in transfected cells; host or cells: CHO cells (Chinese hamster ovary), transient co-transfection with pG5-Luc
T1 sequence (P51450 251-516): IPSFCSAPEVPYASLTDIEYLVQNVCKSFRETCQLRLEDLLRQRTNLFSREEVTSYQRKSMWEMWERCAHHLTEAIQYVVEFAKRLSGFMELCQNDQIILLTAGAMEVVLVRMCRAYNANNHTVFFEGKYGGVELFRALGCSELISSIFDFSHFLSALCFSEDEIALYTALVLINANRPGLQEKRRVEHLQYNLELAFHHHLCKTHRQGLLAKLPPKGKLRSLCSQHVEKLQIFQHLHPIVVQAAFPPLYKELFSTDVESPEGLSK
Method: (§1) In Vitro Assay of Inhibitory Effect Against RORγ Transcriptional Activity
(§2) Inhibitory effect of a test article on transcriptional activity of RORγ was measured by means of the following reporter gene assay.
(§3) cDNA encoding human and mouse RORγ ligand binding domain (LBD) were obtained based on the sequences of human RORγ (Genebank registered number NM_005060.3) and mouse RORγ (Genebank registered number NM_011281.2) (LBD sequence: human RORγ, from Ser253 to Lys518; mouse RORγ, from Ile251 to Lys516).
(§4) The LBD cDNA of human or mouse RORγ was inserted into pFA-CMV vector (Strategene), which expresses GAL4-DNA binding domain fusion protein. The resulting plasmids are hereinafter referred to as GAL4-hRORγ plasmid and GAL4-mRORγ plasmid, respectively.
(§5) GAL4-hRORγ plasmid or GAL4-mRORγ plasmid was transiently co-transfected into Chinese hamster ovary cells (CHO cells) with pG5-Luc (Promega), a reporter plasmid expressing firefly luciferase depending on GAL4.
(§6) TransIT (Registered trademark) CHO transfection reagent (Mirus) was used to co-transfect GAL4-hRORγ plasmid or GAL4-mRORγ plasmid into CHO cells with pG5-Luc plasmid. One day before the assay, CHO cells were suspended in HAM F-12 Nutrient medium containing 10 v/v % fetal bovine serum and seeded at 6×10^6 cells per 175 cm^2 cell culture flask. Fifty four micro litters of TransIT (Registered trademark) CHO reagent was added into a 15 ml tube containing 1.16 mL of HAM F-12 Nutrient medium without fetal bovine serum, and mixed and incubated at room temperature for 10 min. Thirty six micro litters of plasmid solution containing the GAL4-hRORγ plasmid (400 ng), pG5-Luc plasmid (9000 ng) and pcDNA3 plasmid (8600 ng) were added into the tube and mixed gently. In case of mouse assay, a plasmid solution containing the GAL4-mRORγ plasmid (250 ng), pG5-Luc plasmid (9000 ng) and pcDNA3 plasmid (8750 ng) was added, instead. The mixture was incubated at room temperature for 10 min. Nine micro litters of CHO Mojo Reagent were then added into each tube and mixed gently. The mixture was incubated at room temperature for 10 min. The resultant transfection reagent was applied to the cell culture. After incubation at 37° C., 5% CO2 for 4 hours, the plasmid-transfected CHO cells were harvested with a trypsin treatment. The collected cells were resuspended in HAM F-12 Nutrient medium supplemented with 10 v/v % fetal bovine serum and plated into a 384-well-white plate at 8,000 cells/50 μL/well. The plate was incubated at room temperature for 1 hour and then further incubated at 37° C., 5% CO2 for 3 hours. The test articles were dissolved in dimethylsulfoxide (DMSO) to obtain a concentration of 10 mM. The resulting solution was diluted with a medium just before use and added to the cells in the plate to prepare 8 different concentrations of the test article. The final concentration of DMSO was 0.2 v/v %. After the addition of the test articles, the cells were incubated at 37° C., 5% CO2 for 2 days.
(§7) RORγ transcriptional activity was detected as the intracellular luciferase activity using SteadyLite HTS Reporter Gene Assay System (Perkin Elmer). StedyLite Reagent was diluted five-fold into a solution containing Extension reagent (10 mM Tricine, 0.2% w/v BSA, 0.02% v/v Tween-20) to obtain the luciferase substrate solution. After the measurement of the cell viability using Resazurin, the culture media in the plate were removed, and then the luciferase substrate solution was added into each well. After the incubation at room temperature for 10 minutes, luminescence of each well was measured by a microplate reader. The luciferase activity derived from the luminescence count in the vehicle-control well treated with 0.2% DMSO alone was defined as 100%, and the luciferase activity in the test article was calculated as a percentage (%-of-control) based on the value of the vehicle-control. EC50 value of test article was calculated by curve fitting with GraphPad Prism. […]

[2] = biological target: T2, human RORγ (Homo sapiens, UniProt P51449); experiment: In vitro assay of inhibitory effect against RORγ transcriptional activity (GAL4-hRORγ LBD luciferase reporter gene assay in CHO cells); type: cell-based; conditions: for hRORγ luciferase activity, %-of-control: vehicle-control 0.2% DMSO alone = 100%
T2 construct: human RORγ, from Ser253 to Lys518; expressed in transfected cells; host or cells: CHO cells (Chinese hamster ovary), transient co-transfection with pG5-Luc
T2 sequence (P51449 253-518): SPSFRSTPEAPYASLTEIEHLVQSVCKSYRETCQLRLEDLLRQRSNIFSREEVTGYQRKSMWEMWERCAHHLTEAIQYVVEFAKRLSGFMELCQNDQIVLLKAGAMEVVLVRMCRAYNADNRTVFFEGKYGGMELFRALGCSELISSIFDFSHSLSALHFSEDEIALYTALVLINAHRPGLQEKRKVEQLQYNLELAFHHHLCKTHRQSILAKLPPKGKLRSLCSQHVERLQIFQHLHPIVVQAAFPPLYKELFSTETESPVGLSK
Method: as §1, §2, §3, §4, §5, §6, §7

[3] = GAL4-mRORγ LBD luciferase reporter, CHO cells, read-out: LUC EC50 mRORγ
[4] = value in parentheses beside the EC50 bound
[5] = GAL4-hRORγ LBD luciferase reporter, CHO cells, read-out: LUC EC50 hRORγ
[6] = GAL4-mRORγ LBD / pG5-Luc in CHO cells, 2 days incubation
[7] = GAL4-hRORγ LBD / pG5-Luc in CHO cells, 2 days incubation
[8] = value in parentheses beside the > EC50 bound

pEC50 [1, 3] | pEC50 [2, 5] | pEC50 [1, 6] | pEC50 [2, 7] | further results | Compound
< 4.70 | < 4.70 | – | – | mRORγ luciferase activity, %-of-control [1, 4]: (70%); hRORγ luciferase activity, %-of-control [2, 4]: (77%) | CC(C)C[S+]([O-])c1ccc([C@]2(C)NC(=O)N(CCC(=O)O)C=C2C(C)C)cc1Cl (mixture of isomers) [Example 215]
– | – | 7.77 | 7.70 | – | CCC1=CN(CCCC(=O)O)C(=O)N[C@@]1(C)c1ccc(CCC(C)(C)C)c(Cl)c1 [Example 69]
6.86 | 5.96 | – | – | – | CC(C)C1=CN(CCC(=O)O)C(=O)N[C@@]1(C)c1ccc(CC2CCC2)c(Cl)c1 [Example 291]
– | – | 7.57 | 7.19 | – | CC(C)C1=CN(CCC(=O)O)C(=O)N[C@@]1(C)c1ccc(C(C)CC(C)(C)C)c(Cl)c1 (stereo partly drawn) [Example 179]
– | – | < 5.10 | < 5.10 | mRORγ luciferase activity, %-of-control [1, 8]: (81%); hRORγ luciferase activity, %-of-control [2, 8]: (77%) | CC(C)C1=CN(CCC(=O)O)C(=O)N[C@]1(C)c1ccc(CCC2(C)CC2)c(Cl)c1 [Example 131]
– | – | 6.94 | 6.49 | – | CC(C)C1=CN(CCC(=O)O)C(=O)N[C@@]1(C)c1ccc(C2CCC2)c(Cl)c1 [Example 153]
5.88 | 5.85 | – | – | – | CC(C)(C)CCc1ccc([C@]2(C)NC(=O)N(CCC(=O)O)C=C2CCS(C)(=O)=O)cc1Cl [Example 303]
– | – | 7.74 | 7.82 | – | CC1=C(C(C)C)C(C)(c2ccc(CCC(C)(C)C)c(Cl)c2)NC(=O)N1CCCC(=O)O (racemic) [Example 90]
7.57 | 7.64 | – | – | – | CC(C)(C)CCc1ccc([C@]2(C)NC(=O)N(c3ccc(C(=O)O)cn3)C=C2C2CC(F)(F)C2)cc1Cl [Example 320]
– | – | 7.82 | 7.96 | – | CC(C)CC1=CN(CCCC(=O)O)C(=O)N[C@@]1(C)c1ccc(CCC(C)(C)C)c(Cl)c1 [Example 38]
6.57 | 6.75 | – | – | – | CCOC(=O)C1CNCC1N1C=C(C(C)C)[C@](C)(c2ccc(CCC(C)(C)C)c(Cl)c2)NC1=O (single isomer, unassigned) [Example 244]
6.27 | 6.02 | – | – | – | CC(C)C1=CN([C@@H]2CCC[C@@H]2C(=O)O)C(=O)N[C@@]1(C)c1ccc(CCC(C)(C)C)c(Cl)c1 [Example 234]
7.59 | 7.66 | – | – | – | CC(C)C1=CN(C2CCCC(C(=O)O)C2)C(=O)N[C@@]1(C)c1ccc(CCC(C)(C)C)c(Cl)c1 (single isomer, unassigned) [Example 256]
7.72 | 7.82 | – | – | – | CC(C)C1=CN(C2CC3(CC(C(=O)O)C3)C2)C(=O)N[C@@]1(C)c1ccc(CCC(C)(C)C)c(Cl)c1 (single isomer, unassigned) [Example 232]
7.37 | 7.24 | – | – | – | CC(C)C1=CN(C(C)(C)CC(=O)O)C(=O)N[C@@]1(C)c1ccc(CCC(C)(C)C)c(Cl)c1 [Example 259]
7.03 | 7.07 | – | – | – | CC(C)C1=CN(CCC(=O)O)C(=O)N[C@@]1(C)c1ccc(CC(O)C(C)(C)C)c(Cl)c1 (single isomer, unassigned) [Example 311]
– | – | 7.92 | 7.68 | – | CC(C)CCOc1ccc([C@]2(C)NC(=O)N(CCC(=O)O)C=C2C(C)C)cc1Cl [Example 150]

pEC50 [1, 3] | pEC50 [2, 5] | pEC50 [1, 6] | pEC50 [2, 7] | further results | Compound
6.87 | 7.15 | – | – | – | CC(C)(C)CCc1ccc([C@]2(C)NC(=O)N(C3CCOCC3)C=C2[C@H]2C[C@@H](C(=O)O)C2)cc1Cl [Example 199]
7.72 | 7.89 | – | – | – | COCCC1=CN(c2ccc(C(=O)O)cc2)C(=O)N[C@@]1(C)c1ccc([C@H]2C[C@@H](C(C)(C)C)C2)c(Cl)c1 [Example 315]
< 4.70 | < 4.70 | – | – | mRORγ luciferase activity, %-of-control [1, 4]: (76%); hRORγ luciferase activity, %-of-control [2, 4]: (86%) | CC(C)CCS(=O)(=O)c1ccc([C@]2(C)NC(=O)N(CCC(=O)O)C=C2C(C)C)cc1Cl [Example 216]
7.00 | 6.77 | – | – | – | CC(C)CSc1ccc([C@]2(C)NC(=O)N(CCC(=O)O)C=C2C(C)C)cc1Cl [Example 214]
– | – | 7.33 | 6.81 | – | CC(C)C1=CN(CCC(=O)O)C(=O)N[C@@]1(C)c1cc(F)c(OCc2ccccc2)c(Cl)c1 [Example 161]
7.35 | 7.20 | – | – | – | CC(C)CCOc1ccc([C@]2(C)NC(=O)N(C34CC(C(=O)O)(C3)C4)C=C2C2CC(F)(F)C2)cc1Cl [Example 349]
– | – | 7.74 | 7.92 | – | COCCN1C=C([C@H]2C[C@@H](C(=O)O)C2)C(C)(c2ccc(CCC(C)(C)C)c(Cl)c2)NC1=O (single isomer, unassigned) [Example 168]
– | – | 6.12 | 5.96 | – | CC(C)C1=CN(CCCCC(=O)O)C(=O)N[C@]1(C)c1ccc(CCC(C)(C)C)c(Cl)c1 [Example 47]
5.51 | 5.34 | – | – | – | CC(=O)N1CC(C(=O)O)C(N2C=C(C(C)C)[C@](C)(c3ccc(CCC(C)(C)C)c(Cl)c3)NC2=O)C1 (single isomer, unassigned) [Example 239]
– | – | 7.62 | 7.82 | – | CC(C)C1=CN(C23CC(C(=O)O)(C2)C3)C(=O)N[C@@]1(C)c1ccc(CCC(C)(C)C)c(Cl)c1 [Example 77]
7.82 | 7.70 | – | – | – | CC(C)C1=CN([C@H](C)CC(=O)O)C(=O)N[C@@]1(C)c1ccc(CCC(C)(C)C)c(Cl)c1 [Example 236]
– | – | 5.97 | 5.93 | – | CC(C)(C)CCc1ccc([C@@]2(C)NC(=O)N(CCCC(=O)O)C=C2C2(C)CC2)cc1Cl [Example 51]
7.28 | 7.06 | – | – | – | CC(C)CCOc1ccc([C@]2(C)NC(=O)N(CCC(=O)O)C=C2CC(C)C)c(F)c1Cl [Example 202]
– | – | 7.77 | 7.77 | – | CCC(CC)Cc1ccc([C@]2(C)NC(=O)N(CCC(=O)O)C=C2C(C)C)cc1Cl [Example 177]
6.94 | 7.38 | – | – | – | COCC1(N2C=C([C@H]3C[C@@H](C(=O)O)C3)[C@](C)(c3ccc(CCC(C)(C)C)c(Cl)c3)NC2=O)CC1 [Example 250]
– | – | > 7.49 | > 7.49 | – | CC(C)C1=CN(CCC(=O)O)C(=O)N[C@@]1(C)c1ccc(OCCC(C)(C)C)c(Cl)c1 [Example 125]
